Read-outs that look alike come from different tables or passages of the source.
Columns and labels:
[1] = tested on: dopamine transporter (DAT) / serotonin transporter (SERT); conditions: cited from earlier work
healthy subjects [2] = conditions: cited from earlier work; for duration of self-reported effects: MDA 1.4 mg/kg orally, indirect comparison with MDMA from different subjects and studies
5-HT2A receptor = 5-HT2A receptor (Homo sapiens, UniProt P28223)
[3] = cited from earlier work; for Tmax (plasma): after administration of 125 mg MDMA to healthy subjects; for elimination half-life: human plasma
serotonin (5-HT) release = experiment: Serotonin (5-HT) release; conditions: data on file
[4] = receptor studies and limited pre-clinical evidence; cited from earlier work
healthy subjects [5] = conditions: cited from earlier work
humans = conditions: cited from earlier work
[6] = relative dopamine over serotonin transporter inhibition potency ratio, literature values
[7] = vs d-amphetamine, equivalent doses

5-HT2A receptor, sequence (P28223 whole entry): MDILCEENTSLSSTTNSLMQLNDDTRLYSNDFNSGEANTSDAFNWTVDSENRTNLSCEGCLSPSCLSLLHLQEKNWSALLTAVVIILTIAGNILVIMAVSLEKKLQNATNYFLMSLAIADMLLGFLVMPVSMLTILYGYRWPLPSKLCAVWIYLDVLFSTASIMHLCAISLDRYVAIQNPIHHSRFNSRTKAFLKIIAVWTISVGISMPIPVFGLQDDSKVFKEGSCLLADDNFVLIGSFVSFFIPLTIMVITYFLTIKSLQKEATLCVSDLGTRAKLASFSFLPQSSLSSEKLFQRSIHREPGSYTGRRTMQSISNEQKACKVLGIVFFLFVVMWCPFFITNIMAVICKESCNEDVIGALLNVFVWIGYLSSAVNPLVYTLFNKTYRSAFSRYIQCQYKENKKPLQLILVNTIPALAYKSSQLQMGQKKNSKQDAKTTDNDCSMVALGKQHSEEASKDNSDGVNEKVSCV

Structure (SMILES): CNC(C)Cc1ccc2c(c1)OCO2 (stereo not shown) [MDMA, 3,4-Methylenedioxymethamphetamine]
- DAT/SERT ratio [1]: 0.08
- duration of self-reported effects (healthy subjects [2]): ≤ 6 h
- EC50 (5-HT2A receptor; Rickli et al., 2015b; read-out: EC50 of 5-HT2A receptor activation; cited from earlier work): 6.1 µM
- Tmax (plasma) [3]: 2.6 h
- elimination half-life [3]: 7 to 10 h

Structure (SMILES): CCC(N)Cc1ccc2c(c1)OCO2 (stereo not shown) [BDB, 1-(1,3-benzodioxol-5-yl)-2-aminobutane]
- 5-HT release (serotonin (5-HT) release): release 5-HT

Structure (SMILES): CC(N)Cc1ccc2c(c1F)OCO2 (stereo not shown) [2F-MDA]
- 5-HT release (serotonin (5-HT) release): release 5-HT

Structure (SMILES): CN[C@H](C)Cc1ccc2c(c1)OCO2 [R(-)-MDMA]
- efficacy as a releaser of dopamine [4]: low efficacy
- hyperthermia [4]: does not produce hyperthermia

Structure (SMILES): CC(N)Cc1cc(F)c2c(c1)OCO2 (stereo not shown) [5F-MDA]
- 5-HT release (serotonin (5-HT) release): release 5-HT

Structure (SMILES): CC(N)Cc1ccc2c(c1)OCO2 (stereo not shown) [MDA, 3,4-methylenedioxyamphetamine]
- DAT/SERT ratio [1]: 0.24
- duration of self-reported effects (healthy subjects [2]): up to 8 hours
- perceptual changes on the 5-Dimensions of Altered States of Consciousness Scale (healthy subjects [2]; MDA vs MDMA, indirect comparison): greater perceptual changes than MDMA
- EC50 (5-HT2A receptor; read-out: EC50 of 5-HT2A receptor activation; Rickli et al., 2015b; cited from earlier work): 0.63 µM
- Tmax (plasma) [3]: 4.7 h
- Peak plasma concentration of MDA relative to that of MDMA ([3]; after administration of MDMA): 7-10%
- elimination half-life [3]: 10 to 16 h

Structure (SMILES): CCC(Cc1ccc2c(c1)OCO2)NC (stereo not shown) [MBDB, 1-(1,3-benzodioxol-5-yl)-methyl-2-butanamine]
- DAT/SERT ratio [1, 6]: 0.09

Structure (SMILES): NC1Cc2cc3c(cc2C1)OCO3 [MDAI, 5,6-methylenedioxy-2-aminoindane]
- DAT/SERT ratio [1]: 0.2

Structure (SMILES): CC(N)Cc1ccc2ccoc2c1 (stereo not shown) [6-APB, 6-(2-aminopropyl)-benzofuran]
- DAT/SERT ratio [1, 6]: 0.29

Structure (SMILES): C[C@@H](Cc1ccccc1)NC(=O)[C@@H](N)CCCCN [lisdexamfetamine]
- maximal effect (Emax) or area under the effect-time curve (AUEC) (healthy subjects [5]; lisdexamfetamine vs d-amphetamine): no differences
- maximal concentrations of amphetamine (healthy subjects [5]; [7]): no differences
- onset and peak times of the amphetamine concentration-time curve (healthy subjects [5]; [7]): longer
- Tonset of blood pressure-time curve (healthy subjects [5]; vs d-amphetamine): significantly longer
- blood pressure increase (humans; 100 mg lisdexamfetamine oral vs d-amphetamine, FIG. 9): increased more slowly and later
- ratings of liking (humans; oral, vs equivalent dose of d-amphetamine, FIG. 8): lower

Structure (SMILES): CC(N)Cc1ccc2occc2c1 (stereo not shown) [5-APB, 5-(2-aminopropyl)-benzofuran]
- DAT/SERT ratio [1, 6]: 0.05

Structure (SMILES): CC(N)Cc1cc2c(cc1F)OCO2 (stereo not shown) [6F-MDA]
- 5-HT release (serotonin (5-HT) release): release 5-HT

— US20230233688A1, “MDMA PRODRUGS TO ASSIST PSYCHOTHERAPY” (priority 2021, published 2023)
